Test results taken from the NIST ThermoML archive (doi:10.1021/je049652j).
± gives the expanded uncertainty stated by the source.

Experiment: molar heat capacity at constant pressure
Conditions: 101.33 kPa, Liquid

Row | SMILES | molar heat capacity at constant pressure (284.15 K) | molar heat capacity at constant pressure (286.65 K) | molar heat capacity at constant pressure (289.15 K) | molar heat capacity at constant pressure (291.65 K) | molar heat capacity at constant pressure (294.15 K) | molar heat capacity at constant pressure (296.65 K) | molar heat capacity at constant pressure (299.15 K) | molar heat capacity at constant pressure (301.65 K) | molar heat capacity at constant pressure (304.15 K) | molar heat capacity at constant pressure (306.65 K) | molar heat capacity at constant pressure (309.15 K) | molar heat capacity at constant pressure (311.65 K) | molar heat capacity at constant pressure (314.15 K) | other results
1 | CCCCCCl [1-chloropentane] | 184.57 ± 0.92 J/K/mol | 185.29 ± 0.93 J/K/mol | 185.95 ± 0.93 J/K/mol | 186.52 ± 0.93 J/K/mol | 187.16 ± 0.94 J/K/mol | 187.66 ± 0.94 J/K/mol | 188.46 ± 0.94 J/K/mol | 189.19 ± 0.95 J/K/mol | 189.81 ± 0.95 J/K/mol | 190.32 ± 0.95 J/K/mol | 190.99 ± 0.95 J/K/mol | 191.89 ± 0.96 J/K/mol | 192.65 ± 0.96 J/K/mol | molar heat capacity at constant pressure (316.65 K): 193.22 ± 0.97 J/K/mol; molar heat capacity at constant pressure (319.15 K): 194.09 ± 0.97 J/K/mol; molar heat capacity at constant pressure (321.65 K): 194.69 ± 0.97 J/K/mol; molar heat capacity at constant pressure (324.15 K): 195.06 ± 0.98 J/K/mol; molar heat capacity at constant pressure (326.65 K): 196.14 ± 0.98 J/K/mol; molar heat capacity at constant pressure (329.15 K): 196.99 ± 0.98 J/K/mol; molar heat capacity at constant pressure (331.65 K): 197.64 ± 0.99 J/K/mol; molar heat capacity at constant pressure (334.15 K): 198.46 ± 0.99 J/K/mol; molar heat capacity at constant pressure (336.65 K): 199.23 ± 1 J/K/mol; molar heat capacity at constant pressure (339.15 K): 199.92 ± 1 J/K/mol; molar heat capacity at constant pressure (341.65 K): 200.41 ± 1 J/K/mol; molar heat capacity at constant pressure (344.15 K): 201.19 ± 1 J/K/mol; molar heat capacity at constant pressure (346.65 K): 201.73 ± 1 J/K/mol; molar heat capacity at constant pressure (349.15 K): 202.54 ± 1 J/K/mol; molar heat capacity at constant pressure (351.65 K): 203.57 ± 1 J/K/mol; molar heat capacity at constant pressure (353.15 K): 204.24 ± 1 J/K/mol
2 | CCCCl [1-chloropropane] | 128.63 ± 0.64 J/K/mol | 128.99 ± 0.64 J/K/mol | 129.53 ± 0.65 J/K/mol | 130.1 ± 0.65 J/K/mol | 130.47 ± 0.65 J/K/mol | 130.95 ± 0.65 J/K/mol | 131.33 ± 0.66 J/K/mol | 131.88 ± 0.66 J/K/mol | 132.37 ± 0.66 J/K/mol | 132.94 ± 0.66 J/K/mol | 133.4 ± 0.67 J/K/mol | 133.92 ± 0.67 J/K/mol | 134.38 ± 0.67 J/K/mol | 
3 | CCBr [bromoethane] | 105.63 ± 0.53 J/K/mol | 105.91 ± 0.53 J/K/mol | 106.14 ± 0.53 J/K/mol | 106.42 ± 0.53 J/K/mol | 106.75 ± 0.53 J/K/mol | 107.09 ± 0.54 J/K/mol | 107.42 ± 0.54 J/K/mol |  |  |  |  |  |  | molar heat capacity at constant pressure (269.15 K): 104.07 ± 0.52 J/K/mol; molar heat capacity at constant pressure (271.65 K): 104.37 ± 0.52 J/K/mol; molar heat capacity at constant pressure (274.15 K): 104.6 ± 0.52 J/K/mol; molar heat capacity at constant pressure (276.65 K): 104.85 ± 0.52 J/K/mol; molar heat capacity at constant pressure (279.15 K): 105.14 ± 0.53 J/K/mol; molar heat capacity at constant pressure (281.65 K): 105.42 ± 0.53 J/K/mol
